According to patent publication US6660298B1, “Paroxetine tablets and capsules” (priority 2000, dated 2003):
Structures can show the parent of a compound that is named as a salt.

Key:
Format in all cases: physicochemical
[1] = Solubilization enhancement with PVP K-30 and citric acid (Preparation C)
Protocol: Approximately 1.0, 1.5, 1.6, 2.5 and 3.0 grams of amorphous paroxetine HCl were weighed into five 25-ml volumetric flasks. Ten milliliters of an ethanol-water (20% v/v ethanol) mixture containing 0.25 grams of polyvinyl pyrrolidone (PVP) K-30 and 0.02 grams of citric acid anhydrous were added into each of the five flasks and the flasks were sonicated for 30 minutes. Only the solution in flask 1 became clear while only part of the paroxetine HCl in flasks 2 through 5 dissolved.

[2] = Determination of solubility in deionized water (Preparation A); details: room temperature, sonicated 10 min, still clear after 24 hours
Protocol: Approximately 45, 100, 200, 300, 400, 500, 510, 750 and 1000 mg of amorphous paroxetine HCl were weighed into nine 25-ml volumetric flasks labeled 1 through 9 respectively. Ten milliliters of deionized water were pipetted into each of the flasks and the flasks were stoppered. The flasks were then placed in a sonicator (Branson 1210, Danbury, Conn.) and sonicated for ten minutes taking care to see that there was no heating.

[3] = Solubility in aqueous alcohol (Preparation B)
Protocol: A. Exactly two milliliters of ethanol were added to each of the nine flasks from Preparation A and the flasks shaken gently by hand. […] B. Approximately 250, 320, 400, 570 and 1120 mg of amorphous paroxetine HCl were weighed into five 25-ml volumetric flasks labeled 1 through 5 respectively. Ten milliliters of ethanol-water mixture containing 20% v/v ethanol were pipetted into each of the flasks and the flasks were stoppered. The flasks were then placed in a sonicator (Branson 1210, Danbury, Conn.) and sonicated for ten minutes taking care to see that there was no heating.

SMILES	solubility at 30 min ([1]; 60 °C, aqueous with cosolvent or surfactant or cyclodextrin, thermodynamic from solid)	appearance of solution upon heating ([1]; 1.0-3.0 g in 10 ml 20% v/v ethanol with 0.25 g PVP K-30 and 0.02 g citric acid, heated to about 60° C.)	appearance of solution ([1]; 1.0 g in 10 ml 20% v/v ethanol with 0.25 g PVP K-30 and 0.02 g citric acid, sonicated 30 min (flask 1))	extent of dissolution ([1]; 1.5, 1.6, 2.5, 3.0 g in 10 ml 20% v/v ethanol with 0.25 g PVP K-30 and 0.02 g citric acid, sonicated 30 min (flasks 2-5))	maximum solubility ([2]; HCl)	maximum solubility ([2]; listed as amorphous form of paroxetine HCl)	appearance of solution ([3]; 1120 mg in 10 ml ethanol-water 20% v/v ethanol, sonicated 10 min (flask 5))	appearance of solution ([3]; 250, 320, 400, 570 mg in 10 ml ethanol-water 20% v/v ethanol, sonicated 10 min (flasks 1-4))	amount that could be dissolved in hydroalcoholic solvent mixture ([3]; about 15% ethanol (10 ml water + 2 ml ethanol))
Fc1ccc([C@@H]2CCNC[C@H]2COc2ccc3c(c2)OCO3)cc1 [Paroxetine HCl]	> 300 mg/mL	–	–	–	–	–	–	–	–
Cl.Fc1ccc([C@@H]2CCNC[C@H]2COc2ccc3c(c2)OCO3)cc1 [amorphous paroxetine HCl]	–	all the solutions became clear	became clear	only part	about 75 mg/ml	up to 75 mg/ml	clear solution with a slight precipitate	clear solutions	at least 1 gram
